Reference: publication PMC11984268 (BMC Cancer, 2025)
Like-named read-outs stand apart in the source and are kept apart here.

Tests used:
[1] = Plasma pharmacokinetics by HPLC-MS/MS; type: in vivo, human; conditions: for concentration at 24 h: read-out: Cmin 24h
Protocol: Plasma samples were collected pre-dose and 1, 2, 4, 6, 8, 10 and 24 h after the dose on C1/D21. PK trough samples (pre-dose; 2 h post-dose) were obtained on day 21 of cycles 2, 4, 6, 8, 10 and 12.

pMEK1/2 = pMEK1/2 in paired skin biopsies, Western blotting/densitometry; type: in vivo, human; conditions: dose escalation, cohort 7, 12 and 13, C1D15
Protocol: (§1) All patients in the dose escalation phase consented to a fresh frozen punch skin biopsy during screening and on C1/D15 (± 7 days). Fresh frozen skin and tumour biopsies during screening and on C1/D15 (± 7 days) were also required for the first 13 patients in the dose expansion phase. PD markers of MEK1/2 inhibition (pMEK1/2; pERK1/2) in skin biopsies and MET inhibition (pSTAT3) in tumour biopsy were assessed by Western blotting (WB), as previously described. Densitometry on WB images was performed using ImageJ software.

[2] = in vivo; cited from earlier work
pMET^Y1003 = assay: pMET Y1003 in paired tumour biopsies, Western blotting; type: in vivo, human; conditions: one patient with paired biopsy, dose expansion, C1D15
pSTAT3^Y705 = assay: pSTAT3 Y705 in paired tumour biopsies, Western blotting; type: in vivo, human; conditions: one patient with paired biopsy, dose expansion, C1D15
Protocol: as §1

cMET = conditions: cited from earlier work
[3] = patients with advanced solid cancers; cited from earlier work
[4] = remark: listed apart in the source
Protocol: A rolling-six design was employed.
Safety assessments, ophthalmic/cardiac examinations were performed as previously described. […] Anti-tumour activity was conducted at baseline (within 28 days prior to C1/day 1 (D1)) and then every 2 cycles and evaluated by RECIST v1.1.
Safety and efficacy data were summarised using descriptive statistics. Evaluable patients for toxicity were those patients that received at least one dose of one or both drugs. Evaluable patients for MTD or dose escalation were those patients who completed C1 or withdrew early for experiencing a DLT. Response analyses (RECIST v1.1) were performed on an intention-to-treat basis, and any patient who received any dose of study treatment was evaluable for response. PFS was defined as the time between receiving the first dose of study medication to disease progression or death from any cause. OS was defined as the time between C1D1 to death from any cause. PFS and OS were estimated using the Kaplan–Meier method. Statistical significance was calculated from distinct technical replicates by Student’s t-test (2-tailed, 2 sample equal variance on unpaired data), in GraphPad Prism 8. Graphs were plotted as means with error bars represented as SD; statistical significance was denoted as follows: *** = p < 0.001, ** = p < 0.01, * = p < 0.05, ns = p > 0.05.

[5] = Cycle 1, Day 21, Cohort 7: binimetinib 30mg B.D 28d, crizotinib 200mg B.D, n = 7
[6] = Cycle 1, Day 21, Cohort 12: binimetinib 30mg B.D 21d, crizotinib 200mg B.D, n = 5
[7] = Cycle 1, Day 21, Cohort 13: binimetinib 30mg B.D 21d, crizotinib 250mg O.D, n = 6
[8] = Cycle 1, Day 21, Dose expansion phase: binimetinib 30mg B.D 21d, crizotinib 250mg O.D, n = 26
[9] = human, plasma, dose escalation phase, 3 cohorts, oral, read-out: time of peak plasma concentrations after dosing

SMILES	AUC0-10h [1, 5]	Cmax [1, 5]	Cmin [1, 5]	Tmax [1, 5]	AUC0-10h [1, 6]	Cmax [1, 6]	Cmin [1, 6]	Tmax [1, 6]	AUC0-10h [1, 7]	Cmax [1, 7]	Cmin [1, 7]	Tmax [1, 7]	AUC0-10h [1, 8]	Cmax [1, 8]	Cmin [1, 8]	Tmax [1, 8]	Tmax [1, 9]	also measured
O=C(NOCCO)c1cc2[nH]cnc2c(F)c1Nc1ccc(Br)cc1F [AR0042603]	203 (112) ng*h/ml (SD)	25.1 (15.1) ng/ml (SD)	10.4 (2.66) ng/ml (SD)	3.03 (1.97) h (SD)	183 (24.8) ng*h/ml (SD)	29.5 (8.62) ng/ml (SD)	10.2 (2.47) ng/ml (SD)	1.75 (0.5) h (SD)	121 (28.9) ng*h/ml (SD)	23.4 (8.04) ng/ml (SD)	6.95 (1.6) ng/ml (SD)	1.84 (1.16) h (SD)	194 (85.2) ng*h/ml (SD)	22.7 (16.0) ng/ml (SD)	12.1 (4.8) ng/ml (SD)	3.15 (1.99) h (SD)		
Cn1cnc2c(F)c(Nc3ccc(Br)cc3F)c(C(=O)NOCCO)cc21 [binimetinib]	1604 (554) ng*h/ml (SD)	265 (83.4) ng/ml (SD)	77.1 (40.3) ng/ml (SD)	2.26 (2.14) h (SD)	1780 (706) ng*h/ml (SD)	386 (189) ng/ml (SD)	85.8 (51.9) ng/ml (SD)	1.75 (0.5) h (SD)	1402 (666) ng*h/ml (SD)	320 (136) ng/ml (SD)	64.0 (28.9) ng/ml (SD)	1.51 (0.54) h (SD)	2129 (1152) ng*h/ml (SD)	357 (171) ng/ml (SD)	103 (58.5) ng/ml (SD)	2.55 (1.5) h (SD)	0.98 to 6 h	pMEK1/2 (catalytically-inactive) in skin biopsies, post- vs pre-treatment (pMEK1/2): significant accumulation; RP2D [2]: 45 mg B.D; doses achieving plasma concentrations required to inhibit pERK1/2 [2]: ≥ 30 mg B.D; MTD (binimetinib dose in the combination) (days 1–21 every 28 days, with crizotinib 250 mg O.D continuously): 30 mg B.D
C[C@@H](Oc1cc(-c2cnn(C3CCNCC3)c2)cnc1N)c1c(Cl)ccc(F)c1Cl [crizotinib]	2481 (980) ng*h/ml (SD)		205 (78.0) ng/ml (SD)		2119 (1341) ng*h/ml (SD)		181 (136) ng/ml (SD)		1467 (410) ng*h/ml (SD)		114 (43.1) ng/ml (SD)		1647 (907) ng*h/ml (SD)		149 (85.3) ng/ml (SD)		0.97 to 6 h	pMET Y1003 levels in tumour during treatment (pMET^Y1003): increased; pSTAT3 Y705 levels in tumour during treatment (pSTAT3^Y705): decreases; pre-clinically predicted effective concentration to inhibit cMET (cMET): 62 ng/mL; maximum-tolerated dose (MTD) of crizotinib with PD- 0325901 [3]: 200 mg B.D; MTD (crizotinib dose in the combination) (continuously, with binimetinib 30 mg B.D days 1–21 every 28 days): 250 mg O.D; AUC0-24h [1, 7]: 2529 (380) ng*h/ml (SD); AUC0-24h [1, 8]: 3479 (2083) ng*h/ml (SD); median trough plasma concentrations ([1]; cohort 13, crizotinib 250 mg O.D): > 62 ng/mL; concentration at 24 h ([1]; human, plasma, oral, Cycle 1, Day 21, Cohort 13: binimetinib 30mg B.D 21d, crizotinib 250mg O.D, n = 6): 72.6 ng/mL; concentration at 24 h ([1]; human, plasma, oral, Cycle 1, Day 21, Dose expansion phase: binimetinib 30mg B.D 21d, crizotinib 250mg O.D, n = 26): 109 ng/mL; DR-AE determined to be related to the drug ([4]; dose escalation phase, of 210 DR-AE): 164; DR-AE determined to be related to the drug ([4]; dose expansion phase, of 297 DR-AE): 244
